Positions of bridges follow the written chain, without caps; N, C: chain ends. Non-standard residues stand in square brackets, D forms with d. Residues, ends and D or L forms follow the SMILES beside them. 2Nal = N[C@@H](Cc1ccc2ccccc2c1)C(=O)O; Lys(iPr) = CC(C)NCCCC[C@H](N)C(=O)O
How the values were obtained:
leukocytes and HSCs = details: ref [12], [20], [24]; cited from earlier work
Description: In addition to tumor microenvironments, SDF-1 is constitutively expressed at high levels in bone marrow and is an efficient chemotactic factor for immune cells including T-cells, B-cells, and monocytes. […] There are two major mechanisms involved in this function: down-regulation of cell surface CXCR4 by internalization or proteolysis, and antagonism via direct blockade of SDF-1/CXCR4 interaction.

[1] = ref [43]; cited from earlier work
WBC count = details: ref [43], cited from earlier work
pancreatic cancer = details: mice with pancreatic cancer; ref [7]; cited from earlier work
Description: (§1) Due to the critical role of SDF-1/CXCR4 interaction in immune cell retention and mobilization, CXCR4 inhibition may lead to T-cell infiltration and redistribution in tumor microenvironments.

ovarian cancer models = details: ref [32]; cited from earlier work
Description: as §1

hepatic carcinoma models = details: ref [30]; cited from earlier work
Description: as §1

[2] = 1- to 30-mg/day, patients with advanced cancer; ref [9]; cited from earlier work
Description: We developed LY2624587, a fully humanized CXCR4 mAb that is among the first-in-class anti-CXCR4 mAbs developed, for the treatment of patients with cancer. […] A role for LY2624587 antibody in mobilizing HSCs and WBCs has not been previously reported. We also developed LY25 ...

mouse CXCR4 = target: T1, mouse CXCR4 (Mus musculus, UniProt P70658); experiment: SDF-1/CXCR4 binding assay, mouse lymphoma 2PK-3 cells
T1 construct: mouse lymphoma 2PK-3 cells that express endogenous mouse CXCR4; endogenous in cells; host or cells: 2PK-3 mouse lymphoma cells
T1 sequence (P70658 whole entry): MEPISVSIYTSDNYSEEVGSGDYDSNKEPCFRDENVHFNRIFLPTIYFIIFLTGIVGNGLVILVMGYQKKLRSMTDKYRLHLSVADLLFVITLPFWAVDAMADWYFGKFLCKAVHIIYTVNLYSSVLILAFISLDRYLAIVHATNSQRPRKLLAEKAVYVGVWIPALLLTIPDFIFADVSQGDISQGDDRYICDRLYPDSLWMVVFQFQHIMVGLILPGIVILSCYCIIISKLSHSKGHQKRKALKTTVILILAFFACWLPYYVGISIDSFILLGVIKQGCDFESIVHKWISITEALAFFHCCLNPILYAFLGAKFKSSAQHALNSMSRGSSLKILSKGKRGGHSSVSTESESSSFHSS
Description: (§2) Preclinical characterization of both agents was previously described. Interaction of SDF-1/CXCR4 was assayed in human leukemia CCRF-CEM cells expressing high levels of human CXCR4, MDA-MB-435 cells stably transfected with monkey CXCR4, and mouse 2PK-3 lymphoma cells expressing high levels of mouse CXCR4.
(§3) Figure 1 LY2510924 peptide and LY2624587 antibody inhibition of SDF-1/CXCR4 binding in human, monkey, and mouse cells LY2510924 (peptide antagonist) inhibits binding in (A) human, (B) monkey, and (C) mouse cells. LY2624587 (CXCR4 mAb) inhibits binding in (D) human, (E) monkey, and (F) mouse cells. Human cells = leukemia CCRF-CEM cells with high-level expression of human CXCR4, monkey cells = MDA-MB-435 cells stably transfected with monkey CXCR4, and mouse cells = 2PK-3 lymphoma cells with high-level expression of mouse CXCR4. Ki = inhibitor constant.
(§4) The SDF-1/CXCR4 binding assay used human leukemia CCRF-CEM cells that express endogenous CXCR4 and [125I]-labeled recombinant human SDF-1α (PeproTech EC Ltd., London, UK) as previously described. The same assay was conducted for breast cancer MDA-MB-435 cells transfected with monkey CXCR4 and mouse lymphoma 2PK-3 cells that express endogenous mouse CXCR4. Plates were counted in a 1450 Microbeta Liquid Scintillation and Luminescence Counter (Wallac) in SPA mode.

monkey CXCR4 = target: T2, monkey CXCR4 (Macaca fascicularis, UniProt Q28474); experiment: SDF-1/CXCR4 binding assay, MDA-MB-435 cells transfected with monkey CXCR4; details: MDA-MB-435 cells stably transfected with monkey CXCR4; SPA mode; read-out: IC50, inhibition of SDF-1 binding
T2 construct: expressed in transfected cells; host or cells: MDA-MB-435 cells
T2 sequence (Q28474 whole entry): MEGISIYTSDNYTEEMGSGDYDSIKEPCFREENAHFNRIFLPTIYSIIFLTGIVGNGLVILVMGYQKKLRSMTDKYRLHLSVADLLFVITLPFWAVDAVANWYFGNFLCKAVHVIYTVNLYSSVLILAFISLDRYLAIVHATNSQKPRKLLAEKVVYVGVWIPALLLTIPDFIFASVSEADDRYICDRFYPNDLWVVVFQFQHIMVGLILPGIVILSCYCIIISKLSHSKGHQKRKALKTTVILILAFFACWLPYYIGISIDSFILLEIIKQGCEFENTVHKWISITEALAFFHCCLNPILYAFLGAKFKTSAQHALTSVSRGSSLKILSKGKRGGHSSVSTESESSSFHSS
Description: as §2, §3, §4

human CXCR4 = target: T3, human CXCR4 (Homo sapiens, UniProt P61073); experiment: SDF-1/CXCR4 binding assay, [125I]-SDF-1α, human leukemia CCRF-CEM cells
T3 construct: human leukemia CCRF-CEM cells that express endogenous CXCR4; endogenous in cells; host or cells: CCRF-CEM human leukemia cells
T3 sequence (P61073 whole entry): as the sequence (Q28474 whole entry) above, with I24M, H35N, R38K, K146R, S176N counted along it
Description: as §2, §3, §4

[3] = tested on: patients with chronic lymphocytic leukemia, normal lymphocytes; details: ref [40]; cited from earlier work
Description: (§5) These distinct in vitro properties may be related to the differential mobilization of WBCs and HSCs in vivo, but the mechanism is not yet understood and these differences cannot fully explain why LY2624587 antibody induced only minimal changes in WBCs and HSCs in monkeys and humans. […] Weak immune cell mobilization by LY2624587 antibody may be a class phenomenon of mAb agents. Ano ...

hematologic malignancies = details: ref [11], [39]; cited from earlier work
Description: as §5

[4] = tested on: patients with multiple myeloma, peripheral leukocytes; details: ref [41]; cited from earlier work
Description: as §5

Q: What does the source list for c1cc(CN2CCCNCCNCCCNCC2)ccc1CN1CCCNCCNCCCNCC1 [AMD3100]?
A: mobilization of WBCs including neutrophils and HSCs (leukocytes and HSCs): mobilize both white blood cells (WBCs) including neutrophils and HSCs; safety on chronic dosing schedule [1]: poses significant safety concerns due to compound-associated toxicity; duration of single dose effect (WBC count): appeared to last only a few hours; WBC count at 24 hours (WBC count; single dose, 24 hours): reduced to near baseline level at 24 hours; T-cell accumulation near tumors (pancreatic cancer): rapid T-cell accumulation near tumors; combination with anti–PD-L1 mAb, tumor cell elimination (pancreatic cancer): synergistic with an anti–PD-L1 mAb to eliminate tumor cells; effect on intra-tumor regulatory T-cells (ovarian cancer models): selective reduction of intra-tumor regulatory T-cells; effect on tumor apoptosis (ovarian cancer models): increased tumor apoptosis; combination with anti–PD-1 (hepatic carcinoma models): augmented anti–PD-1 combination therapy efficacy

Q: With CC(C)NCCCC[C@H](NC(=O)[C@H]1CCC(=O)N[C@@H](Cc2ccccc2)C(=O)N[C@@H](Cc2ccc(O)cc2)C(=O)N[C@@H](CCCCNC(C)C)C(=O)N[C@H](CCCNC(=N)N)C(=O)N[C@@H](Cc2ccc3ccccc3c2)C(=O)NCC(=O)N1)C(N)=O [LY2510924] (FY[Lys(iPr)][dR][2Nal]G[dE][Lys(iPr)]-NH2; lactam N-7) as the compound, how does the “pharmacokinetic and safety profiles” value [2] read?
A: favorable pharmacokinetic and safety profiles

Q: And the “IC50 difference, mouse versus human cells” value (mouse CXCR4; mouse 2PK-3 vs human CCRF-CEM)?
A: 35 fold

Q: And the “IC50 difference, mouse versus monkey cells” value (mouse CXCR4; mouse 2PK-3 vs monkey CXCR4 MDA-MB-435)?
A: 29 fold

Q: And the IC50 (mouse CXCR4; mouse lymphoma 2PK-3 cells, SPA mode, read-out: IC50, inhibition of SDF-1 binding)?
A: 2.83 nM

Q: What about the IC50 (monkey CXCR4) of the same compound?
A: 0.097 nM

Q: What about the Ki (human CXCR4) of the same compound?
A: 0.0495 nM

Q: What about the IC50 (human CXCR4; human leukemia CCRF-CEM cells, [125I]-labeled human SDF-1α, SPA mode, read-out: IC50, inhibition of SDF-1 binding) of the same compound?
A: 0.0797 nM

Q: For “BMS-936564/MDX-1338: CXCR4-specific mAb in clinical development”, which “increase in absolute number of normal lymphocytes” value [3] is on record?
A: no evidence of increase

Q: What about the “antitumor and pro-apoptotic functionality” value (hematologic malignancies) of the same compound?
A: antitumor and pro-apoptotic functionality

Q: And the “duration of leukocyte increase” value [4]?
A: transient

Q: What about the “increase in peripheral leukocytes (median)” value [4] of the same compound?
A: 2 fold

From publication PMC5706900, “Distinct mobilization of leukocytes and hematopoietic stem cells by CXCR4 peptide antagonist LY2510924 and monoclonal antibody LY2624587” (Oncotarget, 2017)
